Results on 1 molecule are retold here after patent publication US5576439A, “Dihydropyridinecarboxylic acid anhydrides” (Ciba-Geigy Corporation, priority 1994, dated 1996).

The target in test [1] is T1, ETA receptor (Rattus norvegicus, UniProt P26684).
T1 construct: labeled A7r5 cells; endogenous in cells; host or cells: A7r5 cells
T1 sequence (P26684 21-426): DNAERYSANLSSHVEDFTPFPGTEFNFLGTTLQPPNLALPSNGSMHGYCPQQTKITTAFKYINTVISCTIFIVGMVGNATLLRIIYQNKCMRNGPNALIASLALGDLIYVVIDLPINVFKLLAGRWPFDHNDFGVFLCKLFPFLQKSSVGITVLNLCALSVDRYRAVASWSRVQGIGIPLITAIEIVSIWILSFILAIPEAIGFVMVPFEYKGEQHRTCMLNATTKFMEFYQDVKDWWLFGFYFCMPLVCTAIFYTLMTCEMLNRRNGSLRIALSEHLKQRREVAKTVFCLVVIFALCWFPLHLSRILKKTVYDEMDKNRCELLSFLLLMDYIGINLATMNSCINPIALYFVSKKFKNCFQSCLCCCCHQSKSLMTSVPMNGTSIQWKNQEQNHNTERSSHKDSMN
The test can be described thus: ETA receptor inhibitory activity by release of [^3 H]-inositol from labeled A7r5 cells. The class given is cell-based. The source says: For instance the ETA receptor inhibitory activity can be determined by measuring the release of [^3 H]-inositol from [^3 H]-inositol labeled A7r5 cells, as previously described by Cioffi et at, J. Cardiovasc. Pharmacol. 22 (Suppl. 8), S-168 (1993).

Test [2] has as its target T2, ETA receptor (Sus scrofa, UniProt Q29010).
T2 construct: porcine thoracic aorta membranes (ETA receptor); from tissue; host or cells: porcine thoracic aorta membranes
T2 sequence (Q29010 21-427): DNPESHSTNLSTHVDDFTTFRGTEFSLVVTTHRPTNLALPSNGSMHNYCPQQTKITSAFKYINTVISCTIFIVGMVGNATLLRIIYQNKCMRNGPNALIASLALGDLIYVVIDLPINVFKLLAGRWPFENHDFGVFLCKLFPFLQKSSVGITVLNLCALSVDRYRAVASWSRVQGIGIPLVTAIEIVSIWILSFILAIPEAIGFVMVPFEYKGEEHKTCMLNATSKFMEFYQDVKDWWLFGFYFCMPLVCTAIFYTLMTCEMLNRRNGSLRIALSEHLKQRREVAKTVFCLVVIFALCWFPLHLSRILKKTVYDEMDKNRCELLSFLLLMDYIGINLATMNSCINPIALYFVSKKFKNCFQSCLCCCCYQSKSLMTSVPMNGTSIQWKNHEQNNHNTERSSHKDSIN
The test can be described thus: Inhibition of [^125 I] ET-1 binding to porcine thoracic aorta membranes. The procedure:
(§1) Inhibition of the binding of [^125 I] ET-1 to porcine thoracic aorta membranes (ETA receptor) is determined according to Cioffi et al, J. Pharmacol. Exp. Ther. 262, 611 (1992); similarly inhibition of binding of [^125 I] ET-1 to rat cerebellum membranes (ETB receptor).

A further test addresses T3, ETB receptor (Rattus norvegicus, UniProt P21451).
T3 construct: rat cerebellum membranes (ETB receptor); from tissue; host or cells: rat cerebellum membranes
T3 sequence (P21451 27-442): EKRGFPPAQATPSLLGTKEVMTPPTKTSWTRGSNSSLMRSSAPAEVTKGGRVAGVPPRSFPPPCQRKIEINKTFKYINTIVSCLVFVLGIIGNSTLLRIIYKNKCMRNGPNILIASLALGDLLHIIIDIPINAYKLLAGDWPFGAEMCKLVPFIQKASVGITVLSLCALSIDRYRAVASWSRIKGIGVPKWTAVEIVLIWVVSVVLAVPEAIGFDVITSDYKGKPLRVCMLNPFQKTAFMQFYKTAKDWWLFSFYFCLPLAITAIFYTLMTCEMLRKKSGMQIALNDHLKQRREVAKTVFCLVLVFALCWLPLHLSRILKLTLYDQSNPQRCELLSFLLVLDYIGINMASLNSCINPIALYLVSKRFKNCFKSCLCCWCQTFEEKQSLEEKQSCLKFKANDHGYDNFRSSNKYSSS
In words: Inhibition of [^125 I] ET-1 binding to rat cerebellum membranes. The procedure: as §1

Test [3] relates to ET-1 induced contractile response in isolated rabbit aorta. The test can be described thus: Inhibition of ET-1 induced contractile response in isolated rabbit aorta. The note with it: 10 μM, 30 minute pretreatment. The method, then:
(§2) The cardiovascular effects of ET-1 inhibitory activity can be determined as follows:
(§3) A 30 minute pretreatment with test compound (0.1-10 μM) is utilized to determine inhibition of the ET-1 induced contractile response in isolated rabbit aorta. The maximal response to ET-1 is measured at 0.1, 1 and 10 μM, respectively. Similar pretreatment with test compound (1 μM) is utilized to determine the effects of phenylephrine or KCl induced contraction, an indication that the specificity of hemodynamic affects is caused by intereaction with the endothelin receptor. A 5 minute pretreatment with test compound (10 mg/kg, i.v.) is also used to assess the effects on pressor response and attenuation of the depressor response to ET-1 (0.25 nmol/kg iv.) in the conscious rat.

Test [4] has as its system increase in blood pressure induced by ET-1. In words: Effect on pressor response to ET-1 in the conscious rat. The note with it: 10 mg/Kg i.v., 5 minute pretreatment, ET-1 0.25 nmol/kg i.v. The class given is in vivo. The procedure: as §2, §3

For `COC(=O)C1=C(C)NC(C)=C(C(=O)OC(=O)C2=C(C)NC(C)=C(C(=O)OC)[C@@H]2c2cccc([N+](=O)[O-])c2)[C@@H]1c1cccc([N+](=O)[O-])c1` [Example 1, meso-1,4-dihydro-5-methoxycarbonyl-2,6-dimethyl-4-(3-nitrophenyl)-3-pyridine-carboxylic acid anhydride], the IC50 is roughly 140 nM against ETA receptor [1], roughly 16 nM at ETA receptor [2] and roughly 300 nM on ETB receptor. For the same molecule, the “inhibition of ET-1 induced contractile response” value in test [3] was found to be 77%. The “antagonism of increase in blood pressure induced by ET-1” value in test [4] is given as “completely antagonizes”.

The term IC50 denotes the concentration needed to halve the response being measured.
